The text below walks through data of patent publication US10087148B2, “Quinazolines as biogenic amine transport modulators” (THE UNITED STATES OF AMERICA AS REPRESENTED BY THE …, priority 2014, dated 2018).

The target in the experiment is dopamine transporter (DAT) (Rattus norvegicus (Rat), UniProt P23977). The experiment in a line: [3H]dopamine (DA) uptake inhibition in rat brain (caudate) synaptosomes. The experiment is classed as biochemical. To be noted: for DA Uptake Emax / EC50: rat caudate synaptosomes, 5 nM [3H]dopamine, mean ± SD. As to the method:
Uptake inhibition assay for the dopamine transporter was conducted in rat brain synaptosomes as described elsewhere with minor modifications (Rothman et al., Synapse 39, 32-41 (2001)). Freshly removed caudate was homogenized in 10% ice-cold sucrose with 12 strokes of a hand-held Potter-Elvehjem homogenizer followed by centrifugation at 1000×g for 10 min. The supernatants were saved on ice and used immediately. Transporter activity was assessed using 5 nM [^3H]dopamine. The assay buffer was Krebs-phosphate buffer containing 154.4 mM NaCl, 2.9 mM KCl, 1.1 mM CaCl2, 0.83 mM MgCl2, 5 mM glucose, 1 mg/mL ascorbic acid, and 50 μM pargyline. The selectivity of the uptake assay for DAT was optimized by including 100 nM citalopram and 100 nM desipramine as blockers of SERT and NET in the sucrose solution and assay buffer. Uptake inhibition assays were conducted at 25° C. and were initiated by adding 100 μl of tissue to 900 μL assay buffer containing test drug and [^3H]dopamine. Test drugs were diluted in assay buffer containing 1 mg/mL bovine serum albumin. Nonspecific uptake was measured by incubating in the presence of 10 μM indatraline. The reactions were stopped after 15 minutes by rapid vacuum filtration with a cell harvester (BRANDEL) over GF/B filters (Whatman) presoaked in wash buffer maintained at 25° C. (10 mM Tris-HCl, pH 7.4/150 mM NaCl). Filters were rinsed with 6 mL wash buffer and retained tritium was quantified by a MicroBeta liquid scintillation counter (PerkinElmer) after overnight extraction in 0.6 mL of liquid scintillation cocktail (Cytoscint, ICN). The data from three experiments were pooled and fit to a dose-response curve equation (using Kaleidagraph), to yield an Emax and EC50 value.
All of the test compounds were synthesized as described herein. Next, 8-point dose-response curves were generated for each compound (1-20,000 nM) in the [^3H]DA uptake assay. The data from three experiments were pooled and fit to a dose-response curve equation (using KaleidaGraph; Synergy Software, Reading, Pa.) to yield an Emax and IC50 value. […] Selected compounds were also tested for their ability to inhibit [^3H]WIN35428 binding to rat caudate DAT.

dopamine transporter (DAT), sequence (P23977 whole entry): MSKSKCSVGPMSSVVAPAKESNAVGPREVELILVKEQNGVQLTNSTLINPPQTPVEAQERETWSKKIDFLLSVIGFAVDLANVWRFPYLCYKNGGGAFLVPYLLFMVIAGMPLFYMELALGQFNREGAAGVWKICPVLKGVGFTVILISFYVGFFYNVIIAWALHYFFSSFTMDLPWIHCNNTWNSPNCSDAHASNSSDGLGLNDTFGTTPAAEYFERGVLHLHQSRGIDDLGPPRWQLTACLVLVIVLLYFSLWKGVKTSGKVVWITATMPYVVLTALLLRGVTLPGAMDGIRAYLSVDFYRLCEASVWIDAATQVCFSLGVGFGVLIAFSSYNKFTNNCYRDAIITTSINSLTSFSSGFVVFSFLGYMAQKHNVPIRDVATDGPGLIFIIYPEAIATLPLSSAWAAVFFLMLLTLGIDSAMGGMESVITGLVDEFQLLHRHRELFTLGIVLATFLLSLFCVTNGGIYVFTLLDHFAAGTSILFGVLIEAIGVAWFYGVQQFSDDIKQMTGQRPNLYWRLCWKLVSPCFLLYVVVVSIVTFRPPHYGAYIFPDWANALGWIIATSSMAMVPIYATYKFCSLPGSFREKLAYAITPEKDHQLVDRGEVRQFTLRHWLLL

In general, EC50 refers to the concentration that produces a half-maximal response. As for `Cc1ccc(-c2nc(NCC(c3ccccc3)c3cccc(Cl)n3)c3ccccc3n2)cc1` (centres unmarked) [Compound 1, N-(2-(6-chloropyridin-2-yl)-2-phenylethyl)-2-(p-tolyl)quinazolin-4-amine], the “DA Uptake Emax” value was 100 % I and the EC50 amounted to 380 nM.
Regarding `CS(=O)(=O)Nc1ccc(-c2nc(NCC(c3ccccc3)c3ccccn3)c3ccccc3n2)cc1` (centres unmarked) [Compound 2, N-(4-(4-((2-phenyl-2-(pyridin-2-yl)ethyl)amino)quinazolin-2-yl)phenyl)methanesulfonamide], the “DA Uptake Emax” value was 90 ± 3 % I and the EC50 was determined as 50 ± 10 nM.
For the compound `CN(C)c1ccc(-c2nc(NCC(c3ccccc3)c3ccccn3)c3ccccc3n2)cc1` (centres unmarked) [Compound 3, 2-(4-(dimethylamino)phenyl)-N-(2-phenyl-2-(pyridin-2-yl)ethyl)quinazolin-4-amine], the “DA Uptake Emax” value worked out at 91 ± 4 % I and the EC50 was 22 ± 6 nM.
Regarding `CN(C)c1ccc(-c2nc(NCC(O)(c3ccccc3)c3ccccc3)c3ccccc3n2)cc1` [Compound 5, 2-((2-(4-(dimethylamino)phenyl)quinazolin-4-yl)amino)-1,1-diphenylethanol], the “DA Uptake Emax” value is listed as 74 ± 2 % I and the EC50 turned out to be 6.7 ± 1.4 nM.
`CS(=O)(=O)Nc1ccc(-c2nc(NCC(c3ccccc3)C3CCCCC3)c3ccccc3n2)cc1` (centres unmarked) [Compound 6, N-(4-(4-((2-cyclohexyl-2-phenylethyl)amino)quinazolin-2-yl)phenyl)methanesulfonamide]: the “DA Uptake Emax” value came out at 75 ± 2 % I and the EC50 is 16 ± 2 nM.
Take `CN(C)c1ccc(-c2nc(NCC(c3ccccc3)C3CCCCC3)c3ccccc3n2)cc1` (centres unmarked) [Compound 7, N-(2-cyclohexyl-2-phenylethyl)-2-(4-(dimethylamino)phenyl)quinazolin-4-amine]: the “DA Uptake Emax” value worked out at 71 ± 3 % I and the half-maximal effective concentration (EC50) was 46 ± 10 nM.
On to `CS(=O)(=O)Nc1ccc(-c2nc(NCC(c3ccccc3)c3ncccn3)c3ccccc3n2)cc1` (centres unmarked) [Compound 8, N-(4-(4-((2-phenyl-2-(pyrimidin-2-yl)ethyl)amino)quinazolin-2-yl)phenyl)methanesulfonamide], for which the “DA Uptake Emax” value is given as 88 ± 3 % I and the EC50 came out at 477 ± 75 nM.
On the same counts, the results for `CN(C)c1ccc(-c2nc(NCC(c3ccccc3)c3ncccn3)c3ccccc3n2)cc1` (centres unmarked) [Compound 9, 2-(4-(dimethylamino)phenyl)-N-(2-phenyl-2-(pyrimidin-2-yl)ethyl)quinazolin-4-amine] are 91 ± 3 % I and 117 ± 22 nM.
In the case of `CN(C)c1ccc(-c2nc(NCC(c3ccccc3)c3ccncc3)c3ccccc3n2)cc1` (centres unmarked) [Compound 11, 2-(4-(Dimethylamino)phenyl)-N-(2-phenyl-2-(pyridin-4-yl)ethyl)quinazolin-4-amine], the “DA Uptake Emax” value is 77 ± 2 % I and the EC50 was 13 ± 3 nM.
`CS(=O)(=O)Nc1ccc(-c2nc(NCC(c3ccccc3)n3ccnc3)c3ccccc3n2)cc1` (centres unmarked) [Compound 12, N-(4-(4-((2-(1H-imidazol-1-yl)-2-phenylethyl)amino)quinazolin-2-yl)phenyl)methanesulfonamide]: the “DA Uptake Emax” value worked out at 70 ± 3 % I and the EC50 is 100 ± 22 nM.
For the compound `CN(C)c1ccc(-c2nc(NCC(c3ccccc3)n3ccnc3)c3ccccc3n2)cc1` (centres unmarked) [Compound 13, N-(2-(1H-imidazol-1-yl)-2-phenylethyl)-2-(4-(dimethylamino)phenyl)quinazolin-4-amine], the “DA Uptake Emax” value stood at 86 ± 3 % I and the EC50 was 138 ± 21 nM.
Turning to `CN(C)c1ccc(-c2nc(NCC(c3ccccc3)c3ccc[nH]3)c3ccccc3n2)cc1` (centres unmarked) [Compound 14, 2-(4-(dimethylamino)phenyl)-N-(2-phenyl-2-(1H-pyrrol-2-yl)ethyl)quinazolin-4-amine], the “DA Uptake Emax” value came out at 77 ± 4 % I and the EC50 was 5.6 ± 2.1 nM.
On the same counts, the results for `CS(=O)(=O)Nc1ccc(-c2nc(NCC(c3ccccc3)c3ccc[nH]3)c3ccccc3n2)cc1` (centres unmarked) [Compound 15, N-(4-(4-((2-phenyl-2-(1H-pyrrol-2-yl)ethyl)amino)quinazolin-2-yl)phenyl)methanesulfonamide] are 63 ± 2 % I and 43 ± 8 nM.
`CN(C)c1ccc(-c2nc(NCC(c3ccccc3)N3CCCCC3)c3ccccc3n2)cc1` (centres unmarked) [Compound 16, 2-(4-(dimethylamino)phenyl)-N-(2-phenyl-2-(piperidin-1-yl)ethyl)quinazolin-4-amine]: the “DA Uptake Emax” value amounted to 88 ± 4 % I and the 50% effective concentration (EC50) turned out to be 34 ± 9 nM.
For the compound `CS(=O)(=O)Nc1ccc(-c2nc(NCC(c3ccccc3)N3CCCCC3)c3ccccc3n2)cc1` (centres unmarked) [Compound 17, N-(4-(4-((2-phenyl-2-(piperidin-1-yl)ethyl)amino)quinazolin-2-yl)phenyl)methanesulfonamide], the “DA Uptake Emax” value turned out to be 83 ± 5 % I and the 50% effective concentration (EC50) was 62 ± 20 nM.
Take `CN(C)c1ccc(-c2nc(NCC(c3ccccc3)N3CCOCC3)c3ccccc3n2)cc1` (centres unmarked) [Compound 18, 2-(4-(dimethylamino)phenyl)-N-(2-morpholino-2-phenylethyl)quinazolin-4-amine]: the “Efficacy of [3H]DA (DAT) uptake inhibition, in words” value is reported as “partially inhibits”; the “DA Uptake Emax” value is recorded as 75 ± 5 % I; the EC50 came out at 15 ± 7 nM. Besides, the “One-Site Emax” value ([3H]DA uptake, one-component fit) is on record as 75 ± 5 % I. For the same compound, where the note is “[3H]DA uptake, two-component fit, component 1”, the “Two-Site Emax-1” value is 57 ± 2 % I. Also, the “Two-Site Emax-2” value ([3H]DA uptake, two-component fit, component 2) was found to be 42 ± 4 % I.
`CS(=O)(=O)Nc1ccc(-c2nc(NCC(c3ccccc3)N3CCOCC3)c3ccccc3n2)cc1` (centres unmarked) [Compound 19, N-(4-(4-((2-morpholino-2-phenylethyl)amino)quinazolin-2-yl)phenyl)methanesulfonamide]: the “DA Uptake Emax” value was 71 ± 4 % I and the EC50 was determined as 43 ± 13 nM.
Turning to `CS(=O)(=O)Nc1ccc(-c2nc(NCC(c3ccccc3)N3CCCC3)c3ccccc3n2)cc1` (centres unmarked) [Compound 20, N-(4-(4-((2-phenyl-2-(pyrrolidin-1-yl)ethyl)amino)quinazolin-2-yl)phenyl)methanesulfonamide], the “DA Uptake Emax” value came to 79 ± 5 % I and the EC50 was determined as 160 ± 51 nM.
For `CN(C)c1ccc(-c2nc(NCC(c3ccccc3)N3CCCC3)c3ccccc3n2)cc1` (centres unmarked) [Compound 21, 2-(4-(dimethylamino)phenyl)-N-(2-phenyl-2-(pyrrolidin-1-yl)ethyl)quinazolin-4-amine], the “DA Uptake Emax” value came to 92 ± 4 % I and the EC50 is 112 ± 26 nM.
On to `CN1CCN(C(CNc2nc(-c3ccc(N(C)C)cc3)nc3ccccc23)c2ccccc2)CC1` (centres unmarked) [Compound 22, 2-(4-(dimethylamino)phenyl)-N-(2-(4-methylpiperazin-1-yl)-2-phenylethyl)quinazolin-4-amine], for which the “DA Uptake Emax” value is on record as 91 ± 4 % I and the EC50 was found to be 30 ± 8 nM.
Taken in the same sequence, the figures for `CN1CCN(C(CNc2nc(-c3ccc(NS(C)(=O)=O)cc3)nc3ccccc23)c2ccccc2)CC1` (centres unmarked) [Compound 23, N-(4-(4-((2-(4-methylpiperazin-1-yl)-2-phenylethyl)amino)quinazolin-2-yl)phenyl)methanesulfonamide] were 77 ± 3 % I and 62 ± 15 nM.
With `CN(C)c1ccc(-c2nc(NCC(c3ccccc3)c3cccnc3)c3ccccc3n2)cc1` (centres unmarked) [Compound 24, 2-(4-(dimethylamino)phenyl)-N-(2-phenyl-2-(pyridin-3-yl)ethyl)quinazolin-4-amine], the “DA Uptake Emax” value came out at 79 ± 3 % I and the EC50 was 24 ± 5 nM.
`CS(=O)(=O)Nc1ccc(-c2nc(NCC(c3ccccc3)c3cccnc3)c3ccccc3n2)cc1` (centres unmarked) [Compound 25, N-(4-(4-((2-phenyl-2-(pyridin-3-yl)ethyl)amino)quinazolin-2-yl)phenyl)methanesulfonamide]: the “DA Uptake Emax” value is listed as 73 ± 2 % I and the EC50 was found to be 25 ± 4 nM.
For `CN(C)c1ccc(-c2nc(NCC(Cc3ccccc3)c3ccccc3)c3ccccc3n2)cc1` (centres unmarked) [Compound 26, 2-(4-(dimethylamino)phenyl)-N-(2,3-diphenylpropyl)quinazolin-4-amine], the “DA Uptake Emax” value stood at 78 ± 3 % I and the EC50 is 39 ± 9 nM.
In the case of `CS(=O)(=O)Nc1ccc(-c2nc(NCC(Cc3ccccc3)c3ccccc3)c3ccccc3n2)cc1` (centres unmarked) [Compound 27, N-(4-(4-((2,3-diphenylpropyl)amino)quinazolin-2-yl)phenyl)methanesulfonamide], the “DA Uptake Emax” value came out at 76 ± 2 % I and the EC50 came to 58 ± 9 nM.
Taken in the same sequence, the figures for `Cc1cc(N(C)C)ccc1-c1nc(NCC(c2ccccc2)c2ccc(CO)[nH]2)c2ccccc2n1` (centres unmarked) [Compound 28, (5-(2-((2-(4-(dimethylamino)-2-methylphenyl)quinazolin-4-yl)amino)-1-phenylethyl)-1H-pyrrol-2-yl)methanol] were 84 ± 5 % I and 18 ± 7 nM.
